According to patent publication US6887896B1, “7-[(7-Alkoxy)-chrom-3-en-6-yl]-heptatrienoic acid and 7-[(3-alkoxy)-5,6-dihydronaphthalen-2-yl]-heptatrienoic acid derivatives having serum glucose reducing activity” (Allergan, Inc., priority 2003, dated 2005):

How the values were obtained:
[1] = biological target: T1, RARα (Homo sapiens, UniProt P10276); experiment: ligand binding assay, RARα; settings: for Kd: Table 9 (Formula F), read-out: RAR α Kd
T1 sequence (P10276 1-462): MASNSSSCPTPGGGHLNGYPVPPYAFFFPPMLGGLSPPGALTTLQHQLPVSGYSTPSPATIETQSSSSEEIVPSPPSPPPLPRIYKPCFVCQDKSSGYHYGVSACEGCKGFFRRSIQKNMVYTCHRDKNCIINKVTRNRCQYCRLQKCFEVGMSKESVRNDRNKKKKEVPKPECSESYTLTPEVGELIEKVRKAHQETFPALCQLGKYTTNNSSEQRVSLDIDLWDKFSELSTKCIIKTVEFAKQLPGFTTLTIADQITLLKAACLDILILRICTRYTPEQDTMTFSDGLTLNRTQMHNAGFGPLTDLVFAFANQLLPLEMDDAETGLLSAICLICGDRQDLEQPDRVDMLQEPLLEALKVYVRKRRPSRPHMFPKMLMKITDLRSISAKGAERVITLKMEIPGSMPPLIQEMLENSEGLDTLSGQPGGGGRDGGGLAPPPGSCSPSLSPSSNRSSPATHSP
How it was run: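 Binding of compounds to several retinoid receptor subtypes was measured. Results are given as Ki values in nanomolar concentration, derived per Cheng et al.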

[2] = biological target: T2, RXRα (Homo sapiens, UniProt P19793); experiment: holoreceptor transactivation assay, RXRα; format: cell-based; settings: for EC50: holoreceptor transactivation, read-out: RXR Trans. EC50 α; for Emax: percentage compared to the standard compound, read-out: RXR Trans. efficacy (number in parentheses) α
T2 construct: expressed in transfected cells
T2 sequence (P19793 1-462): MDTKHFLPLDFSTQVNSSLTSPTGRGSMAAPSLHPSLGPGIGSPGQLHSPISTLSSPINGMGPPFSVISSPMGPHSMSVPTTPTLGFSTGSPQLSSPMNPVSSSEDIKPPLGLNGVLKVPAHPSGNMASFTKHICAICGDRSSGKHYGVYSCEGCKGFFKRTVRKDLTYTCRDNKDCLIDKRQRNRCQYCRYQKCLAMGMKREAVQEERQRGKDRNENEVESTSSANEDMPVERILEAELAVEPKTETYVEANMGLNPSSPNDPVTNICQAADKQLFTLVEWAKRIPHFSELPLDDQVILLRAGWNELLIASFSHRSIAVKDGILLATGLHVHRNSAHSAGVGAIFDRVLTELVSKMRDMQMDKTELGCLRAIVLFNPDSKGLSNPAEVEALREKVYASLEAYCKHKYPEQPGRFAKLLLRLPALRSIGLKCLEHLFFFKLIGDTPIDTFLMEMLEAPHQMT
How it was run: (§1)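 RXR activation measured in holoreceptor transactivation assays; RAR subtypes in chimeric receptor transactivation assays. Values are EC50 in nM, with efficacy as percentage of maximal activity of a reference cyclopropyl-pentadienoic acid RXR agonist.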

[3] = biological target: T3, RARβ (Homo sapiens, UniProt P10826); experiment: chimeric receptor transactivation assay, RARβ; format: cell-based; settings: for EC50: chimeric receptor transactivation, read-out: RAR Trans. EC50 β; for Emax: percentage compared to the standard compound, read-out: RAR Trans. efficacy (number in parentheses) β
T3 sequence (P10826 183-417 limits assumed): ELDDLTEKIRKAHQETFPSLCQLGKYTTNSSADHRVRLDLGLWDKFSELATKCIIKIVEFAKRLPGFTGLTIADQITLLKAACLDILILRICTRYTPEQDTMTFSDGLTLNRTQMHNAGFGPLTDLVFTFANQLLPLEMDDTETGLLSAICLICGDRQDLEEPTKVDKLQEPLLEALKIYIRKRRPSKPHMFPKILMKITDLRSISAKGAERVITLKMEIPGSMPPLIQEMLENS
Description: Specifically, one such assay is a chimeric receptor transactivation assay which tests for agonist-like activity in the R RAPE and RAR7 receptor subtypes, and which is based on work published by Feigner, P. L. and Holm, M (1989) Focus, 112 is described in detail in U.S. Pat. No. 5,455,265. The specification of U.S. Pat. No. 5,455,265 is hereby expressly incorporated by reference. A holoreceptor transactivation assay and a ligand binding assay which measure the antagonist/agonist like activity of the compounds of the invention, or their ability to bind to the several retinoid receptor subtypes, respectively, are described in published PCT Application No. WO WO93/11755 (particularly on pages 30-33 and 37-41) published on Jun. 24, 1993, the specification of which is also incorporated herein by reference. A detailed experimental procedure for holoreceptor transactivations has been described by Heyman et al. Cell 68, 397-406, (1992); Allegretto et al. J. Biol. Chem. 268, 26625-26633, and Mangelsdorf et al. The Retinoids: Biology, Chemistry and Medicine, pp 319-349, Raven Press Ltd., New York, which are expressly incorporated herein by reference. The results obtained in this assay are expressed in EC50 numbers, as they are also in the chimeric receptor transactivation assay. The results of the ligand binding assay are expressed in Ki numbers. (See Cheng et al. Biochemical Pharmacology Vol. 22 pp 3099-3108, expressly incorporated herein by reference.)
Efficacy in a transactivation assay is expressed as a percentage of the maximum potency attained by the compound compared to a standard which, in this case, is the compound named (2E,4E,1′S,2′S)-3-methyl-5-[2′-methyl-2′-(5,5,8,8-tetramethyl-5,6,7,8-tetrahydro-naphthalen-2-yl)-cyclopropyl]-penta-2,4-dienoic acid. This standard compound is described in U.S. Pat. No. 6,114,533.
The specification of this application for patent is organized in several sections in accordance with structural Formulas A through F each of which discloses a group of preferred compounds within the scope of the invention. Tables that disclose the activity of certain exemplary compounds of the invention in the above-described RXR receptor transactivation and binding assays are found in the corresponding sections. […] The transactivation data pertaining to the activation of RXR receptors were obtained in the holoreceptor assay.
Generally speaking, in the tables disclosing the results of transactivation and binding assays the numbers in parentheses indicate efficacy as a percentage compared to the standard compound, (2E,4E,1′S,2′S)-3-methyl-5-[2′-methyl-2′-(5,5,8,8-tetramethyl-5,6,7,8-tetrahydro-naphthalen-2-yl)cyclopropyl]-penta-2,4-dienoic acid and the other numbers indicate the measured EC50 and K; in nanomolar concentration.

[4] = biological target: T4, RXRγ (UniProt P28705); experiment: holoreceptor transactivation assay, RXRγ; format: cell-based; settings: for EC50: holoreceptor transactivation, read-out: RXR Trans. EC50 γ; for RXR Trans. efficacy (number in parentheses) γ: percentage compared to the standard compound
T4 sequence (P28705 1-463): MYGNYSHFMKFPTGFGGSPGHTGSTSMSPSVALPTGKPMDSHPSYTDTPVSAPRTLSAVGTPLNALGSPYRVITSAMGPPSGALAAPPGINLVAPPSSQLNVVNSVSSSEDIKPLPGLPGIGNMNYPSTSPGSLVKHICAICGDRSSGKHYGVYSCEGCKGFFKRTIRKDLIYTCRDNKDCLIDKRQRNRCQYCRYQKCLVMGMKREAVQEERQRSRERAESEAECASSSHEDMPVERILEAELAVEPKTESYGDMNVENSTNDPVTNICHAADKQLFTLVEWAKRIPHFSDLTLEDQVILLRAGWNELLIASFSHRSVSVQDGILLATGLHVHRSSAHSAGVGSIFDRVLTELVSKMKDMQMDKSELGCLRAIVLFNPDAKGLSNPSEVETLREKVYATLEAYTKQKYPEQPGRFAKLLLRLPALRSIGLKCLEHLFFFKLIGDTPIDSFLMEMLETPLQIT
How it was run: as §1

Compound | Ki ([1]; read-out: RAR Bind. Ki α) | EC50 [2] | Emax [2] | EC50 [3] | Emax [3] | EC50 [4] | RXR Trans. efficacy (number in parentheses) γ [4] | Kd [1]
CCOc1c(\C(CC)=C(F)/C=C/C(C)=C/C(=O)O)cc2c(c1Br)C(C)(C)CC=C2C(C)C [Compound A-170, (2E,4E,6E)-7-(4-Bromo-3-ethoxy-8-isopropyl-5,5-dimethyl-5,6-dihydro-naphthalen-2-yl)-6-fluoro-3-methyl-nona-2,4,6-trienoic acid] |  | 0.2 nM | 60% | 3.5 nM | 8% | 0.4 nM | 53% | 12 nM
CCOc1c(\C(=C(F)/C=C/C(C)=C/C(=O)O)C(C)C)cc2c(c1Br)C(C)(C)CC=C2C(C)C [Compound A-171, (2E,4E,6E)-7-(4-Bromo-3-ethoxy-8-isopropyl-5,5-dimethyl-5,6-dihydro-naphthalen-2-yl)-6-fluoro-3.8-dimethyl-nona-2.4,6-trienoic acid] |  | 0.9 nM | 24% | 2 nM | 12% | 2 nM | 16% | 29 nM
CCOc1c(\C(CC)=C(F)/C=C/C(C)=C/C(=O)O)cc2c(c1Br)C(C)(C)CC=C2C(C)CC (centres unmarked) [Compound A-176, (2E,4E,6E)-7-(4-Bromo-8-sec-butyl-3-ethoxy-5,5-methyl-5,6-dihydro-naphthalen-2-yl)-6-fluoro-3-methyl-nona-2,4,6-trienoic acid] |  | 0.9 nM | 58% | 14 nM | 19% | 3 nM | 53% | 32 nM

Further lines, results first:

Ki ([1]; read-out: RAR Bind. Ki α) | EC50 [2] | Emax [2] | EC50 [3] | Emax [3] | EC50 [4] | RXR Trans. efficacy (number in parentheses) γ [4] | Kd [1] | Compound
394 nM | 2 nM | 13% | 31 nM | 12% | 2 nM | 7% |  | CCOc1cc2c(cc1\C(CC)=C(F)/C=C/C(C)=C/C(=O)O)C(C(C)(C)C)=CCC2(C)C [Compound A-83, (2E,4E,6E)-7-(8-tert-Butyl-3-ethoxy-5,5-dimethyl-5,6-dihydronaphthalen-2-yl)-6-fluoro-3-methyl-nona-2,4,6-trienoic acid]
 | 0.1 nM | 43% | 9 nM | 26% | 0.3 nM | 46% | 9.9 nM | CCOc1c(\C(CC)=C(F)/C=C/C(C)=C/C(=O)O)cc2c(c1Cl)C(C)(C)CC=C2C(C)C [Compound A-178, (2E,4E,6E)-7-(4-Chloro-3-ethoxy-8-isopropyl-5,5-dimethyl-5,6-dihydronaphthalen-2-yl)-6-fluoro-3-methyl-nona-2,4,6-trienoic acid]
